The record followed here is publication PMC1930153, “Engineering the Melanocortin-4 Receptor to Control Constitutive and Ligand-Mediated Gs Signaling In Vivo” (PLoS ONE, 2007).

Holding throughout (assay type): cell-based
The target in one experiment is T1, MC4R G98R (Homo sapiens, UniProt P32245, G98R).
T1 construct: prolactin signal peptide (N); green fluorescent protein (N); expressed in transfected cells; host or cells: HEK293
The experiment can be described thus: cAMP assay, G98R MC4R mutant in HEK293 cells. How it is done: (§1) HEK293 cells were maintained in Dulbecco's modified Eagle's medium supplemented with 10% fetal bovine serum containing L-glutamine. Wild-type and mutant MC4R were transfected into HEK 293 cells with Lipofectamine (Invitrogen). For the internalization assays, stable cell lines expressing wild-type or RASSL-MC4R were generated by G418-mediated selection (10 µg/ml) of clones expressing the neomycin-resistance gene cotransfected with MC4R. Stable cell lines were maintained by selection with 5 µg/ml G418.
(§2) cAMP production was measured with an ultra sensitive enzymatic cAMP assay (CatchPoint, Molecular Devices, Sunnyvale, CA). Transiently transfected cells were plated at 1×10^5/well into 96-well plates coated with poly-D-lysine (Sigma). Forty-eight h after transfection, cells were rinsed in Krebs-Ringer bicarbonate buffer containing glucose (Sigma) and incubated in pre-stimulation buffer containing 0.75 mM 3-isobutyl-1-methylxanthine in the same buffer for 10 min at room temperature. […] The cells were lysed, and cAMP accumulation was measured according to the CatchPoint protocol. cAMP generated under the different experimental conditions was interpolated from a cAMP standard curve for each experiment. […] Emax and EC50 values were calculated with SoftMax Pro. cAMP measurements were performed on transiently transfected cells.

The target of the next experiment is T2, MC4R S127L (Homo sapiens, UniProt P32245, S127L).
T2 construct: prolactin signal peptide (N); green fluorescent protein (N); expressed in transfected cells; host or cells: HEK293
The experiment is described as follows: cAMP assay, S127L MC4R mutant in HEK293 cells. The procedure:
as §1, §2
In general terms: Changes in cAMP serve as a functional read-out for many G protein-coupled receptors.

The next experiment concerns the target T3, MC4R I102S (Homo sapiens, UniProt P32245, I102S).
T3 construct: prolactin signal peptide (N); green fluorescent protein (N); expressed in transfected cells; host or cells: HEK293
The experiment can be described thus: cAMP assay, I102S MC4R mutant in HEK293 cells. How it is done: as §1, §2

The next experiment addresses T4, MC4R E100A (Homo sapiens, UniProt P32245, E100A).
T4 construct: prolactin signal peptide (N); green fluorescent protein (N); expressed in transfected cells; host or cells: HEK293
The experiment is described as follows: cAMP assay, E100A MC4R mutant in HEK293 cells. The procedure:
as §1, §2

In experiment [1] the target is T5, wild-type MC4R (Homo sapiens, UniProt P32245).
T5 construct: prolactin signal peptide (N); expressed in transfected cells; host or cells: HEK293
The experiment can be described thus: cAMP assay, wild-type MC4R in transiently transfected HEK293 cells. The procedure: (§3) HEK293 cells were maintained in Dulbecco's modified Eagle's medium supplemented with 10% fetal bovine serum containing L-glutamine. […] For the internalization assays, stable cell lines expressing wild-type or RASSL-MC4R were generated by G418-mediated selection (10 µg/ml) of clones expressing the neomycin-resistance gene cotransfected with MC4R. Stable cell lines were maintained by selection with 5 µg/ml G418.
(§4) cAMP production was measured with an ultra sensitive enzymatic cAMP assay (CatchPoint, Molecular Devices, Sunnyvale, CA). Transiently transfected cells were plated at 1×10^5/well into 96-well plates coated with poly-D-lysine (Sigma). Forty-eight h after transfection, cells were rinsed in Krebs-Ringer bicarbonate buffer containing glucose (Sigma) and incubated in pre-stimulation buffer containing 0.75 mM 3-isobutyl-1-methylxanthine in the same buffer for 10 min at room temperature. […] The cells were lysed, and cAMP accumulation was measured according to the CatchPoint protocol. cAMP generated under the different experimental conditions was interpolated from a cAMP standard curve for each experiment. Four replicates were used for each condition, and all experiments were repeated at least three times. Emax and EC50 values were calculated with SoftMax Pro. cAMP measurements were performed on transiently transfected cells.

The target of another experiment is T6, Rm2 (D122A) (Homo sapiens, UniProt P32245, D122A).
T6 construct: prolactin signal peptide (N); green fluorescent protein (N); expressed in transfected cells; host or cells: HEK293
The experiment can be described thus: Receptor internalization (cell-surface FLAG ELISA), HEK293 cells stably expressing Rm2. How it is done:
as §1
(§5) Cell-surface expression of receptors was measured with an enzyme-linked immunosorbent assay (ELISA) that detects the extracellular FLAG tag. Transiently transfected cells were plated at 1×10^5/well into 96-well plates coated with poly-D-lysine (Sigma). […] Forty-eight h after transfection, cells were fixed in 4% paraformaldehyde (Sigma) for 10 min at 4°C. After two washes in phosphate-buffered saline, the cells were incubated in 1 µg/ml M1 anti-FLAG antibody (Sigma) for 2 h at room temperature, washed twice in phosphate-buffered saline, and incubated for 1 h at room temperature with horseradish peroxidase–conjugated goat-anti-mouse (1∶1000, BioRad, Chicago, IL). […] After 15–60 min, the optical density was read at 405 nm in a spectrophotometer. […]
A general note: An ELISA detects its analyte on a solid surface through an enzyme-linked reagent.

The target of the next experiment is T7, MC4R N97D (Homo sapiens, UniProt P32245, N97D).
T7 construct: prolactin signal peptide (N); green fluorescent protein (N); expressed in transfected cells; host or cells: HEK293
The experiment is described as follows: cAMP assay, N97D MC4R mutant in HEK293 cells. How it is done: as §1, §2

The target of the next experiment is T8, Rm1 (L106P) (Homo sapiens, UniProt P32245, L106P).
T8 construct: prolactin signal peptide (N); green fluorescent protein (N); expressed in transfected cells; host or cells: HEK293
The experiment is described as follows: Receptor internalization (cell-surface FLAG ELISA), HEK293 cells stably expressing Rm1. The procedure:
as §1, §5

The next experiment addresses T9, D122A-MC4R (Rm2) (Homo sapiens, UniProt P32245, D122A).
T9 construct: prolactin signal peptide (N); green fluorescent protein (N); expressed in transfected cells; host or cells: HEK293
The experiment is described as follows: cAMP assay, D122A MC4R (Rm2) in HEK293 cells. The procedure: as §3, §4

In a further experiment the target is T10, L106P-MC4R (Rm1) (Homo sapiens, UniProt P32245, L106P).
T10 construct: prolactin signal peptide (N); green fluorescent protein (N); expressed in transfected cells; host or cells: HEK293
The experiment can be described thus: cAMP assay, L106P MC4R (Rm1) in HEK293 cells. How it is done: as §3, §4

The target of the next experiment is T11, MC4R D126A (Homo sapiens, UniProt P32245, D126A).
T11 construct: prolactin signal peptide (N); green fluorescent protein (N); expressed in transfected cells; host or cells: HEK293
The experiment is described as follows: cAMP assay, D126A MC4R mutant in HEK293 cells. How it is done:
as §1, §2

Experiment [2] has as its target T5, wild-type MC4R. The experiment is described as follows: Receptor internalization (cell-surface FLAG ELISA), HEK293 cells stably expressing wild-type MC4R. Particulars: WT MC4R, 2-h exposure. The procedure: as §1, §5
In experiment [3] the target is T5, wild-type MC4R. The experiment is described as follows: Cell-surface expression ELISA, transiently transfected HEK293 cells, wild-type MC4R. Particulars: WT MC4R, transient transfection; α-MSH 1 µM. The procedure: as §1, §5

`O=C(N[C@H](Cc1ccc(Cl)cc1)C(=O)N1CCC(Cn2cncn2)(C2CCCCC2)CC1)[C@H]1Cc2ccccc2CN1` (relative stereo) [THIQ]: the “Emax (% of WT)” value at MC4R G98R is 2.6±0.6 % of WT; at MC4R S127L it was 21.7±3.5 % of WT; on MC4R I102S, 49.2±2.2 % of WT; on MC4R E100A, 44.54±4.9 % of WT; at wild-type MC4R [1] (cAMP, 2 h stimulation), 100 % of WT; at MC4R N97D it was 43.1±3.1 % of WT. In addition, the “Emax (% of WT)” value on D122A-MC4R (Rm2) (cAMP, D122A (Rm2)) is 90.3±6.2 % of WT; at L106P-MC4R (Rm1) (cAMP, L106P (Rm1)), 73.4±14.8 % of WT; at MC4R D126A it was 50.7±3.6 % of WT. At Rm2 (D122A) (Rm2, 1 µM ligand), the “Decrease in cell-surface expression” value is “about 20%”. The “Receptor sequestration/internalization in words” value on Rm2 (D122A) (Rm2, 2-h exposure, increasing concentrations) is on record as “did not cause sequestration”; at Rm1 (L106P) (Rm1, 2-h exposure, increasing concentrations) it was “did not cause sequestration”. For the same compound, the “Internalization in words (time course)” value on Rm1 (L106P) (Rm1, 1 µM ligand, 2-h exposure) is recorded as “did not internalize”; at wild-type MC4R [2] (1 µM ligand), “did not result in internalization”. The “Receptor sequestration in words” value at wild-type MC4R [2] (increasing concentrations) is listed as “did not cause sequestration”.
As for `CSCC[C@H](NC(=O)[C@H](CCCNC(=N)N)NC(=O)[C@H](Cc1ccc(O)cc1)NC(=O)[C@@H]1CCCN1C(=O)CNC(=O)[C@H](CCC(=O)O)NC(=O)[C@H](CC(=O)O)NC(=O)[C@H](CCCCN)NC(=O)[C@H](CCCCN)NC(=O)[C@H](CCC(=O)O)NC(=O)[C@H](C)N)C(=O)N[C@@H](CCC(=O)O)C(=O)N[C@@H](Cc1c[nH]cn1)C(=O)N[C@@H](Cc1ccccc1)C(=O)N[C@@H](CCCNC(=N)N)C(=O)N[C@@H](Cc1c[nH]c2ccccc12)C(=O)NCC(=O)N[C@@H](CO)C(=O)N1CCC[C@H]1C(=O)N1CCC[C@H]1C(=O)N[C@@H](CCCCN)C(=O)N[C@@H](CC(=O)O)C(=O)O` [β-MSH], the “Activation (cAMP release) in words” value on wild-type MC4R [1] (WT MC4R, increasing concentrations) is “full activation”; on D122A-MC4R (Rm2) (Rm2, increasing concentrations), “no activation”; at L106P-MC4R (Rm1) (Rm1, increasing concentrations) it was “no activation”.
Regarding “agouti-related peptide (SSRRCVRLHESCLGQQVPCCDPCATCYCRFFNAFCYCRKLGTAMNPCSRT; UniProt O00253 83-132, looked up) [AGRP]”, the “Effect on cell-surface expression in words” value with wild-type MC4R [3] is on record as “stabilized receptor expression on the cell surface”. Moreover, in the experiment with L106P-MC4R (Rm1) (Rm1, cAMP), the “Antagonism when co-administered with THIQ” value is recorded as “full antagonist”.
